Like-named read-outs stand apart in the source and are kept apart here. Square brackets hold non-standard residues; d marks the D form. Peptide text beside a SMILES is read from it. * marks the point of attachment. Cbz = O=C(OCc1ccccc1)*
Experiments:
wt MeV = settings: in vitro, ex vivo; cited from earlier work
MeV IC323-EGFP-F L454W = experiment: organotypic brain cultures (OBC) infected with MeV bearing L454W F; assay type: cell-based, mice
[1] = target: viral glycoproteins (H and F); CD150; experiment: beta-galactosidase complementation-based fusion assay, CD150 target cells
Chain of viral glycoproteins (H and F); CD150 (Q786F3 24-112): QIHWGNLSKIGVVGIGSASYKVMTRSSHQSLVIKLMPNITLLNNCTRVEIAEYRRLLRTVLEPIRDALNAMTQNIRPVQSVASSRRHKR
Chain of viral glycoproteins (H and F); CD150 (Q786F3 113-550): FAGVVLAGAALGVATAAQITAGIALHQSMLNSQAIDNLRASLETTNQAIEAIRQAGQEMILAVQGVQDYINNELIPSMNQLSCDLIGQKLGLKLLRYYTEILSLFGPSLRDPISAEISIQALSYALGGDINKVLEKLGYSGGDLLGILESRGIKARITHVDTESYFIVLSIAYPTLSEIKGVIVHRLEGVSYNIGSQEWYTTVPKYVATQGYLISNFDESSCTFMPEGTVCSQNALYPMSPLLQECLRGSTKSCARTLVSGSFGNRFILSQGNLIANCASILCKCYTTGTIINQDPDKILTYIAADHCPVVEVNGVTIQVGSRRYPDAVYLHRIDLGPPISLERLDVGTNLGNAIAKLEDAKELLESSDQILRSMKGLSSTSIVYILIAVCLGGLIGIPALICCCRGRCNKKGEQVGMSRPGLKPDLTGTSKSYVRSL

MeV “WTFb” strain = experiment: in vivo efficacy, intranasal peptides in MeV-infected cotton rats; settings: intranasal 24 h and 12 h before infection, 5 m/kg dose, 4 days post-infection
Description: FIGS. 84-93 further describe the invention. […] Intranasal administration of MeV-derived peptides protects cotton rats from MV infection. Cotton rats (n=4) were infected intranasally with MeV “WTFb” strain. Treatment was given intranasally 24 h and 12 h before infection in 100 ul (5 m/kg dose of peptides). The animals were euthanized 4 days post-infection.

[2] = target: viral glycoproteins (H and F); Nectin-4 (Measles virus, UniProt Q786F3); experiment: beta-galactosidase complementation-based fusion assay, Nectin-4 target cells
Chain of viral glycoproteins (H and F); Nectin-4 (Q786F3 24-112): as the sequence (Q786F3 24-112) above

virus bearing L454W F = experiment: lethal infection of suckling mice, intranasal peptide; settings: intranasal administration
B41 (HIV-1 strain) = settings: read-out: IC50 B41; pseudovirus, TZM-BL cells
[3] = test system: vesicular stomatitis virus (VSV); settings: 16 h
[4] = test system: murine leukemia viruses (MLV); settings: read-out: IC50 MLV; pseudovirus, TZM-BL cells
BG505 (HIV-1 strain) = settings: read-out: IC50 BG505; pseudovirus, TZM-BL cells
MN (HIV-1 strain) = settings: read-out: IC50 MN; pseudovirus, TZM-BL cells
16055 (HIV-1 strain) = settings: read-out: IC50 16055; pseudovirus, TZM-BL cells

**Q.** What does the source list for CC[C@H](C)[C@H](NC(=O)[C@H](C)NC(=O)[C@H](CC(N)=O)NC(=O)CNC(=O)[C@H](CC(C)C)NC(=O)[C@H](CC(N)=O)NC(=O)[C@@H](NC(=O)CNC(=O)[C@@H](NC(=O)[C@H](CC(=O)O)NC(=O)[C@H](CC(C)C)NC(=O)[C@H](CCCNC(=N)N)NC(=O)[C@H](CCC(=O)O)NC(=O)[C@H](CC(C)C)NC(=O)[C@H](CO)NC(=O)[C@@H](NC(=O)[C@@H]1CCCN1C(=O)[C@@H]1CCCN1C(C)=O)[C@@H](C)CC)C(C)C)[C@@H](C)O)C(=O)N[C@@H](C)C(=O)N[C@@H](CCCCN)C(=O)N[C@@H](CC(C)C)C(=O)N[C@@H](CCC(=O)O)C(=O)N[C@@H](CC(=O)O)C(=O)N[C@@H](C)C(=O)N[C@@H](CCCCN)C(=O)N[C@@H](CCC(=O)O)C(=O)N[C@@H](CC(C)C)C(=O)N[C@@H](CC(C)C)C(=O)N[C@@H](CCC(=O)O)C(=O)N[C@@H](CO)C(=O)N[C@@H](CO)C(=O)N[C@@H](CC(=O)O)C(=O)N[C@@H](CCC(N)=O)C(=O)N[C@H](C(=O)N[C@@H](CC(C)C)C(=O)N[C@@H](CCCNC(=N)N)C(=O)NCC(=O)N[C@@H](CO)C(=O)NCC(=O)N[C@@H](CO)C(=O)NCC(=O)N[C@@H](CSC1CC(=O)N(CCCC(=O)NCCOCCOCCOCCOCCC(=O)NCCN(CCNC(=O)CCOCCOCCOCCOCCNC(=O)CCCN2C(=O)CC(SC[C@H](NC(=O)CNC(=O)[C@H](CO)NC(=O)CNC(=O)[C@H](CO)NC(=O)CNC(=O)[C@H](CCCNC(=N)N)NC(=O)[C@H](CC(C)C)NC(=O)[C@@H](NC(=O)[C@H](CCC(N)=O)NC(=O)[C@H](CC(=O)O)NC(=O)[C@H](CO)NC(=O)[C@H](CO)NC(=O)[C@H](CCC(=O)O)NC(=O)[C@H](CC(C)C)NC(=O)[C@H](CC(C)C)NC(=O)[C@H](CCC(=O)O)NC(=O)[C@H](CCCCN)NC(=O)[C@H](C)NC(=O)[C@H](CC(=O)O)NC(=O)[C@H](CCC(=O)O)NC(=O)[C@H](CC(C)C)NC(=O)[C@H](CCCCN)NC(=O)[C@H](C)NC(=O)[C@@H](NC(=O)[C@H](C)NC(=O)[C@H](CC(N)=O)NC(=O)CNC(=O)[C@H](CC(C)C)NC(=O)[C@H](CC(N)=O)NC(=O)[C@@H](NC(=O)CNC(=O)[C@@H](NC(=O)[C@H](CC(=O)O)NC(=O)[C@H](CC(C)C)NC(=O)[C@H](CCCNC(=N)N)NC(=O)[C@H](CCC(=O)O)NC(=O)[C@H](CC(C)C)NC(=O)[C@H](CO)NC(=O)[C@@H](NC(=O)[C@@H]3CCCN3C(=O)[C@@H]3CCCN3C(C)=O)[C@@H](C)CC)C(C)C)[C@@H](C)O)[C@@H](C)CC)[C@@H](C)CC)C(=O)O)C2=O)CCO[C@H]2CC[C@@]3(C)C(=CC[C@H]4[C@@H]5CC[C@H]([C@H](C)CCCC(C)C)[C@@]5(C)CC[C@@H]43)C2)C1=O)C(=O)O)[C@@H](C)CC (stereo partly shown) [[HRC450-485-peg4]2-chol]?
**A.** blocking of wt MeV infection (previous work) (wt MeV): blocks infection with wt MeV in vitro, ex vivo and in vivo in cotton rats and mice; spread of virus in OBC (fluorescence) (MeV IC323-EGFP-F L454W; 10 nM): only partially inhibitory; spread of virus in OBC (fluorescence) (MeV IC323-EGFP-F L454W; 100 nM): only isolated single infected cells were observed; reduction in the number of MeV N RNA copies (MeV IC323-EGFP-F L454W; IFNAR1KO OBC, 10 nM, treated post-infection, vs untreated): 4 fold; reduction of the viral load (MeV N RNA copies, RT-qPCR) (MeV IC323-EGFP-F L454W; IFNAR1KO OBC, 100 nM, treated post-infection, vs untreated): 2 log; variation of the viral load (MeV IC323-EGFP-F L454W; IFNAR1KO OBC, concentrations below 10 nM): No significant variation of the viral load; dissemination of virus in OBC expressing human CD150 (SLAM) (MeV IC323-EGFP-F L454W; OBC from IFNAR1KO mice expressing human CD150, highest concentration): blocked dissemination of MeV IC323-EGFP-F L454W at least as well as WT virus; spread of virus in OBC (fluorescence) (MeV IC323-EGFP-F L454W; either 100 nM or 10 nM, four days after infection): blocks the spread of MeV-IC323-EGFP-F L454W; IC50 [1]: 0.1 ± 0.0651 µM; IC90 ([1]; read-out: CD150 IC90): 0.698 ± 0.0223 µM; MeV titration of lung homogenates (MeV “WTFb” strain): reduces the viral titer compared to the untreated animals; IC50 [2]: 0.125 ± 0.175 µM; IC90 [2]: 0.379 ± 0.3 µM; IC90 ([2]; read-out: Nectin4 IC90): 0.379 ± 0.3 µM; protection from lethal infection (virus bearing L454W F): protects suckling mice from lethal infection

**Q.** For O=C(CNC(=O)[C@H](Cc1ccccc1)NC(=O)[C@@H](Cc1ccccc1)NC(=O)OCc1ccccc1)NCC(=O)N[C@@H](CO)C(=O)NCC(=O)N[C@@H](CO)C(=O)NCC(=O)N[C@@H](CS)C(=O)O [FIP, Z-D-FFG-GSGSG-C (SEQ ID NO. 52)] (Cbz-[dF]FGGSGSGC-OH), which IC50 (B41 (HIV-1 strain)) is on record?
**A.** Its IC50 is over 5 µM.

**Q.** And the IC50 [3]?
**A.** Its IC50 is over 5 µM.

**Q.** And the IC90 [2]?
**A.** Its IC90 is over 10 µM.

**Q.** And the IC50 ([2]; IC50, Table 2 (salient peptides), Nectin-4 target cells)?
**A.** Its IC50 is 9.72 ± 2.73 µM.

**Q.** And the IC50 ([2]; Nectin4 IC50, Table 3 (extended version))?
**A.** Its IC50 is 9.72 ± 2.73 µM.

**Q.** And the IC90 ([2]; read-out: Nectin4 IC90)?
**A.** Its IC90 is over 10 µM.

**Q.** And the IC50 [4]?
**A.** The IC50 was over 5 µM.

**Q.** What about the IC50 (BG505 (HIV-1 strain)) of the same compound?
**A.** The IC50 was over 5 µM.

**Q.** What about the IC50 (MN (HIV-1 strain)) of the same compound?
**A.** Its IC50 is over 5 µM.

**Q.** What about the IC50 (16055 (HIV-1 strain)) of the same compound?
**A.** Its IC50 is over 5 µM.
